Source: patent US20190166841A1, “Method for Controlling PPO Resistant Weeds” (BASF SE, priority 2016, published 2019)

Columns and labels:
Format in all cases: in vivo
[1] = test system: Amaranthus tamariscinus (Common waterhemp, AMATA), PPO resistant biotype 1 (w.2); experiment: Greenhouse herbicidal activity test, PPO resistant waterhemp w.2; settings: use rate 4 g/ha, scale 0 to 100
From the text: (§1) The culture containers used were plastic flowerpots containing loamy sand with approximately 3.0% of humus as the substrate. The seeds of the test plants were sown separately for each species and/or resistant biotype. For the pre-emergence treatment, the active ingredients, which had been suspended or emulsified in water, were applied directly after sowing by means of finely distributing nozzles. The containers were irrigated gently to promote germination and growth and subsequently covered with transparent plastic hoods until the plants had rooted. This cover caused uniform germination of the test plants, unless this had been impaired by the active ingredients. For the post-emergence treatment, the test plants were first grown to a height of 3 to 15 cm, depending on the plant habit, and only then treated with the active ingredients which had been suspended or emulsified in water. For this purpose, the test plants were either sown directly and grown in the same containers, or they were first grown separately as seedlings and transplanted into the test containers a few days prior to treatment. Depending on the species, the plants were kept at 10-25° C. or 20-35° C., respectively. The test period extended over 2 to 4 weeks. During this time, the plants were tended, and their response to the individual treatments was evaluated. The evaluation was carried out by using a scale from 0 to 100. […]

[2] = test system: Amaranthus tamariscinus (Common waterhemp, AMATA), PPO resistant biotype 3 that was shown to contain the ΔG210 mutation (w.4); experiment: Greenhouse herbicidal activity test, PPO resistant waterhemp w.4; settings: use rate 4 g/ha; PPO resistant biotype 3 with ΔG210 mutation; scale 0 to 100
From the text: as §1

[3] = test system: Amaranthus tamariscinus (Common waterhemp, AMATA), PPO resistant biotype 2 (w.3); experiment: Greenhouse herbicidal activity test, PPO resistant waterhemp w.3; settings: use rate 4 g/ha, scale 0 to 100
From the text: as §1

[4] = test system: Amaranthus tamariscinus (Common waterhemp, AMATA), Sensitive biotype (w.1); experiment: Greenhouse herbicidal activity test, sensitive waterhemp w.1; settings: use rate 4 g/ha, scale 0 to 100 (100 = complete destruction, 0 = no damage)
From the text: as §1

## CCS(=O)(=O)Nc1cc(-n2nc(C(F)(F)F)n(C)c2=O)c(F)cc1C(N)=S [(I).1, bencarbazone]
[1]
  Weed control (%) w.2: 100%
[2]
  Weed control (%) w.4: 82%
[3]
  Weed control (%) w.3: 100%
[4]
  Weed control (%) w.1: 92%
